Experimental data taken from US20230085307A1, “PYRIDAZINONE COMPOUND AND HERBICIDE” (NISSAN CHEMICAL CORPORATION, priority 2019, published 2023).

Key:
barnyard grass [1] = test: Test Example 3: herbicidal effect by foliage application, Wagner pot (Table 18, symbol H); type: in vivo, barnyard grass (Echinochloa crus-galli); conditions: amount of applied herbicide 320 g/ha
In short: (§1)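 Plants were sown in alluvial soil held under 0.1–0.5 cm standing water and grown 14 days in a greenhouse at 25–30 °C. An emulsifiable formulation, water-diluted to the set dose, was then sprayed onto the foliage, and effects were scored three weeks later using previously defined criteria.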

Chinese sprangletop = test: Test Example 3: herbicidal effect by foliage application, Wagner pot (Table 18, symbol D); type: in vivo, chinese sprangletop (Leptochloa chinensis); conditions: amount of applied herbicide 320 g/ha
In short: as §1

rice flat sedge = test: Test Example 3: herbicidal effect by foliage application, Wagner pot (Table 18, symbol E); type: in vivo, rice flat sedge (Cyperus iria); conditions: amount of applied herbicide 320 g/ha
In short: as §1

southern crabgrass [2] = test: Test Example 4: herbicidal effect by soil treatment (Table 19, symbol F); type: in vivo, southern crabgrass (Digitaria ciliaris); conditions: amount of applied herbicide 320 g/ha
In short: (§2)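 In this soil treatment, the formulated compound reached the seeds only through the soil: seeds were buried about 1.5 cm deep in sterilized diluvial soil, then the diluted emulsion was sprayed over the surface. After three weeks at 25° C. to 30° C. in a greenhouse, effects were graded on criteria from an earlier test.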

green foxtail [3] = test: Test Example 4: herbicidal effect by soil treatment (Table 19, symbol G); type: in vivo, green foxtail (Setaria viridis); conditions: amount of applied herbicide 320 g/ha
In short: as §2

barnyard grass [4] = test: Test Example 4: herbicidal effect by soil treatment (Table 19, symbol H); type: in vivo, barnyard grass (Echinochloa crus-galli); conditions: amount of applied herbicide 320 g/ha
In short: as §2

wild oat [5] = test: Test Example 4: herbicidal effect by soil treatment (Table 19, symbol I); type: in vivo, wild oat (Avena fatua); conditions: amount of applied herbicide 320 g/ha
In short: as §2

blackgrass [6] = test: Test Example 4: herbicidal effect by soil treatment (Table 19, symbol J); type: in vivo, blackgrass (Alopecurus myosuroides); conditions: amount of applied herbicide 320 g/ha
In short: as §2

Italian ryegrass [7] = test: Test Example 4: herbicidal effect by soil treatment (Table 19, symbol K); type: in vivo, Italian ryegrass (Lolium multiflorum); conditions: amount of applied herbicide 320 g/ha
In short: as §2

windgrass [8] = test: Test Example 4: herbicidal effect by soil treatment (Table 19, symbol L); type: in vivo, windgrass (Apera spica-venti); conditions: amount of applied herbicide 320 g/ha
In short: as §2

velvetleaf [9] = test: Test Example 4: herbicidal effect by soil treatment (Table 19, symbol M); type: in vivo, velvetleaf (Abutilon theophrasti); conditions: amount of applied herbicide 320 g/ha
In short: as §2

redroot pigweed [10] = test: Test Example 4: herbicidal effect by soil treatment (Table 19, symbol N); type: in vivo, redroot pigweed (Amaranthus retroflexus); conditions: amount of applied herbicide 320 g/ha
In short: as §2

lambsquarters [11] = test: Test Example 4: herbicidal effect by soil treatment (Table 19, symbol O); type: in vivo, lambsquarters (Chenopodium album); conditions: amount of applied herbicide 320 g/ha
In short: as §2

chickweed [12] = test: Test Example 4: herbicidal effect by soil treatment (Table 19, symbol P); type: in vivo, common chickweed (Stellaria media); conditions: amount of applied herbicide 320 g/ha
In short: as §2

persian speedwell [13] = test: Test Example 4: herbicidal effect by soil treatment (Table 19, symbol R); type: in vivo, Persian speedwell (Veronica persica); conditions: amount of applied herbicide 320 g/ha
In short: as §2

southern crabgrass [14] = test: Test Example 5: herbicidal effect by foliage application, plastic box (Table 20, symbol F); type: in vivo, southern crabgrass (Digitaria ciliaris); conditions: foliage application, evaluated three weeks after application
In short: (§3)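 Plants were sown into sterilized diluvial soil under about 1.5 cm cover and kept in a greenhouse at 25° C. to 30° C. Fourteen days on, foliage received an even spray of the diluted emulsion. Herbicidal or crop effect was judged three weeks afterwards.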

green foxtail [15] = test: Test Example 5: herbicidal effect by foliage application, plastic box (Table 20, symbol G); type: in vivo, green foxtail (Setaria viridis); conditions: foliage application, evaluated three weeks after application
In short: as §3

barnyard grass [16] = test: Test Example 5: herbicidal effect by foliage application, plastic box (Table 20, symbol H); type: in vivo, barnyard grass (Echinochloa crus-galli); conditions: foliage application, evaluated three weeks after application
In short: as §3

wild oat [17] = test: Test Example 5: herbicidal effect by foliage application, plastic box (Table 20, symbol I); type: in vivo, wild oat (Avena fatua); conditions: foliage application, evaluated three weeks after application
In short: as §3

blackgrass [18] = test: Test Example 5: herbicidal effect by foliage application, plastic box (Table 20, symbol J); type: in vivo, blackgrass (Alopecurus myosuroides); conditions: foliage application, evaluated three weeks after application
In short: as §3

Italian ryegrass [19] = test: Test Example 5: herbicidal effect by foliage application, plastic box (Table 20, symbol K); type: in vivo, Italian ryegrass (Lolium multiflorum); conditions: foliage application, evaluated three weeks after application
In short: as §3

windgrass [20] = test: Test Example 5: herbicidal effect by foliage application, plastic box (Table 20, symbol L); type: in vivo, windgrass (Apera spica-venti); conditions: foliage application, evaluated three weeks after application
In short: as §3

velvetleaf [21] = test: Test Example 5: herbicidal effect by foliage application, plastic box (Table 20, symbol M); type: in vivo, velvetleaf (Abutilon theophrasti); conditions: foliage application, evaluated three weeks after application
In short: as §3

redroot pigweed [22] = test: Test Example 5: herbicidal effect by foliage application, plastic box (Table 20, symbol N); type: in vivo, redroot pigweed (Amaranthus retroflexus); conditions: foliage application, evaluated three weeks after application
In short: as §3

lambsquarters [23] = test: Test Example 5: herbicidal effect by foliage application, plastic box (Table 20, symbol O); type: in vivo, lambsquarters (Chenopodium album); conditions: foliage application, evaluated three weeks after application
In short: as §3

chickweed [24] = test: Test Example 5: herbicidal effect by foliage application, plastic box (Table 20, symbol P); type: in vivo, common chickweed (Stellaria media); conditions: foliage application, evaluated three weeks after application
In short: as §3

persian speedwell [25] = test: Test Example 5: herbicidal effect by foliage application, plastic box (Table 20, symbol R); type: in vivo, Persian speedwell (Veronica persica); conditions: foliage application, evaluated three weeks after application
In short: as §3

| SMILES | herbicidal effect on H: barnyard grass (barnyard grass [1]) | herbicidal effect on D: Chinese sprangletop (Chinese sprangletop) | herbicidal effect on E: rice flat sedge (rice flat sedge) | herbicidal effect on F: southern crabgrass (southern crabgrass [2]) | herbicidal effect on G: green foxtail (green foxtail [3]) | herbicidal effect on H: barnyard grass (barnyard grass [4]) | herbicidal effect on I: wild oat (wild oat [5]) | herbicidal effect on J: blackgrass (blackgrass [6]) | herbicidal effect on K: Italian ryegrass (Italian ryegrass [7]) | herbicidal effect on L: windgrass (windgrass [8]) | herbicidal effect on M: velvetleaf (velvetleaf [9]) | herbicidal effect on N: redroot pigweed (redroot pigweed [10]) | herbicidal effect on O: lambsquarters (lambsquarters [11]) | herbicidal effect on P: chickweed (chickweed [12]) | herbicidal effect on R: persian speedwell (persian speedwell [13]) | further results |
| --- | --- | --- | --- | --- | --- | --- | --- | --- | --- | --- | --- | --- | --- | --- | --- | --- |
| CSc1cccc(-c2sc3ccc(F)cc3c2-c2c(O)c(C)nn(C)c2=O)c1 [2-240] | 4 (Herbicidal rate of 70% or more and less than 90%) | 3 (Herbicidal rate of 40% or more and less than 70%) | 4 (Herbicidal rate of 70% or more and less than 90%) | 4 (Herbicidal rate of 70% or more and less than 90%) | 5 (Herbicidal rate of 90% or more (almost completely withered)) | 2 (Herbicidal rate of 20% or more and less than 40%) | 1 (Herbicidal rate of 5% or more and less than 20%) | 0 (Herbicidal rate of 5% or less (almost no effect)) | 0 (Herbicidal rate of 5% or less (almost no effect)) | 0 (Herbicidal rate of 5% or less (almost no effect)) | 1 (Herbicidal rate of 5% or more and less than 20%) | 4 (Herbicidal rate of 70% or more and less than 90%) | 3 (Herbicidal rate of 40% or more and less than 70%) | 1 (Herbicidal rate of 5% or more and less than 20%) | 5 (Herbicidal rate of 90% or more (almost completely withered)) | herbicidal effect on F: southern crabgrass (criteria 0-5) (southern crabgrass [14]; 320 g/ha): 5 (Herbicidal rate of 90% or more (almost completely withered)); herbicidal effect on G: green foxtail (criteria 0-5) (green foxtail [15]; 320 g/ha): 5 (Herbicidal rate of 90% or more (almost completely withered)); herbicidal effect on H: barnyard grass (criteria 0-5) (barnyard grass [16]; 320 g/ha): 3 (Herbicidal rate of 40% or more and less than 70%); herbicidal effect on I: wild oat (criteria 0-5) (wild oat [17]; 320 g/ha): 5 (Herbicidal rate of 90% or more (almost completely withered)); herbicidal effect on J: blackgrass (criteria 0-5) (blackgrass [18]; 320 g/ha): 3 (Herbicidal rate of 40% or more and less than 70%); herbicidal effect on K: Italian ryegrass (criteria 0-5) (Italian ryegrass [19]; 320 g/ha): 3 (Herbicidal rate of 40% or more and less than 70%); herbicidal effect on L: windgrass (criteria 0-5) (windgrass [20]; 320 g/ha): 4 (Herbicidal rate of 70% or more and less than 90%); herbicidal effect on M: velvetleaf (criteria 0-5) (velvetleaf [21]; 320 g/ha): 4 (Herbicidal rate of 70% or more and less than 90%); herbicidal effect on N: redroot pigweed (criteria 0-5) (redroot pigweed [22]; 320 g/ha): 5 (Herbicidal rate of 90% or more (almost completely withered)); herbicidal effect on O: lambsquarters (criteria 0-5) (lambsquarters [23]; 320 g/ha): 5 (Herbicidal rate of 90% or more (almost completely withered)); herbicidal effect on P: chickweed (criteria 0-5) (chickweed [24]; 320 g/ha): 5 (Herbicidal rate of 90% or more (almost completely withered)); herbicidal effect on R: persian speedwell (criteria 0-5) (persian speedwell [25]; 320 g/ha): 5 (Herbicidal rate of 90% or more (almost completely withered)) |
| Cc1nn(C)c(=O)c(-c2c(-c3ccc(OC(F)F)cc3)sc3ccc(F)cc23)c1OC(=O)N(C)C [2-291] | 4 (Herbicidal rate of 70% or more and less than 90%) | 3 (Herbicidal rate of 40% or more and less than 70%) | 2 (Herbicidal rate of 20% or more and less than 40%) | 0 (Herbicidal rate of 5% or less (almost no effect)) | 0 (Herbicidal rate of 5% or less (almost no effect)) | 0 (Herbicidal rate of 5% or less (almost no effect)) | 0 (Herbicidal rate of 5% or less (almost no effect)) | 0 (Herbicidal rate of 5% or less (almost no effect)) | 0 (Herbicidal rate of 5% or less (almost no effect)) | 0 (Herbicidal rate of 5% or less (almost no effect)) | 0 (Herbicidal rate of 5% or less (almost no effect)) | 3 (Herbicidal rate of 40% or more and less than 70%) | 3 (Herbicidal rate of 40% or more and less than 70%) | 4 (Herbicidal rate of 70% or more and less than 90%) | 3 (Herbicidal rate of 40% or more and less than 70%) | F: southern crabgrass, herbicidal effect (criteria 0-5) (southern crabgrass [14]; AAH 320 g/ha): 0 (Herbicidal rate of 5% or less (almost no effect)); G: green foxtail, herbicidal effect (criteria 0-5) (green foxtail [15]; AAH 320 g/ha): 4 (Herbicidal rate of 70% or more and less than 90%); H: barnyard grass, herbicidal effect (criteria 0-5) (barnyard grass [16]; AAH 320 g/ha): 0 (Herbicidal rate of 5% or less (almost no effect)); I: wild oat, herbicidal effect (criteria 0-5) (wild oat [17]; AAH 320 g/ha): 0 (Herbicidal rate of 5% or less (almost no effect)); J: blackgrass, herbicidal effect (criteria 0-5) (blackgrass [18]; AAH 320 g/ha): 3 (Herbicidal rate of 40% or more and less than 70%); K: Italian ryegrass, herbicidal effect (criteria 0-5) (Italian ryegrass [19]; AAH 320 g/ha): 3 (Herbicidal rate of 40% or more and less than 70%); L: windgrass, herbicidal effect (criteria 0-5) (windgrass [20]; AAH 320 g/ha): 0 (Herbicidal rate of 5% or less (almost no effect)); M: velvetleaf, herbicidal effect (criteria 0-5) (velvetleaf [21]; AAH 320 g/ha): 2 (Herbicidal rate of 20% or more and less than 40%); N: redroot pigweed, herbicidal effect (criteria 0-5) (redroot pigweed [22]; AAH 320 g/ha): 5 (Herbicidal rate of 90% or more (almost completely withered)); O: lambsquarters, herbicidal effect (criteria 0-5) (lambsquarters [23]; AAH 320 g/ha): 5 (Herbicidal rate of 90% or more (almost completely withered)); P: chickweed, herbicidal effect (criteria 0-5) (chickweed [24]; AAH 320 g/ha): 5 (Herbicidal rate of 90% or more (almost completely withered)); R: persian speedwell, herbicidal effect (criteria 0-5) (persian speedwell [25]; AAH 320 g/ha): 5 (Herbicidal rate of 90% or more (almost completely withered)) |
